Source: patent US7183061B2, “Method of expressing Heliothis ecdysone receptor fusion protein” (Syngenta Limited, priority 1996, dated 2007)

Assays:
[1] = system: glucocorticoid receptor transactivating and DNA binding domains fused to the ecdysone receptor hinge and ligand binding domains; details: mammalian cells; cited from earlier work
[2] = target: T1, glucocorticoid/Drosophila ecdysone chimeric receptor (UniProt P04150+P34021); test: Maize protoplast GUS reporter assay with pMF6GREcRS and p221.9GRE6; format: cell-based; details: maize protoplasts, reporter plus effector, concentration not given
T1 construct: expressed in transfected cells; host or cells: maize suspension-culture protoplasts
T1 sequence (P04150+P34021 with tags, fused parts or gaps): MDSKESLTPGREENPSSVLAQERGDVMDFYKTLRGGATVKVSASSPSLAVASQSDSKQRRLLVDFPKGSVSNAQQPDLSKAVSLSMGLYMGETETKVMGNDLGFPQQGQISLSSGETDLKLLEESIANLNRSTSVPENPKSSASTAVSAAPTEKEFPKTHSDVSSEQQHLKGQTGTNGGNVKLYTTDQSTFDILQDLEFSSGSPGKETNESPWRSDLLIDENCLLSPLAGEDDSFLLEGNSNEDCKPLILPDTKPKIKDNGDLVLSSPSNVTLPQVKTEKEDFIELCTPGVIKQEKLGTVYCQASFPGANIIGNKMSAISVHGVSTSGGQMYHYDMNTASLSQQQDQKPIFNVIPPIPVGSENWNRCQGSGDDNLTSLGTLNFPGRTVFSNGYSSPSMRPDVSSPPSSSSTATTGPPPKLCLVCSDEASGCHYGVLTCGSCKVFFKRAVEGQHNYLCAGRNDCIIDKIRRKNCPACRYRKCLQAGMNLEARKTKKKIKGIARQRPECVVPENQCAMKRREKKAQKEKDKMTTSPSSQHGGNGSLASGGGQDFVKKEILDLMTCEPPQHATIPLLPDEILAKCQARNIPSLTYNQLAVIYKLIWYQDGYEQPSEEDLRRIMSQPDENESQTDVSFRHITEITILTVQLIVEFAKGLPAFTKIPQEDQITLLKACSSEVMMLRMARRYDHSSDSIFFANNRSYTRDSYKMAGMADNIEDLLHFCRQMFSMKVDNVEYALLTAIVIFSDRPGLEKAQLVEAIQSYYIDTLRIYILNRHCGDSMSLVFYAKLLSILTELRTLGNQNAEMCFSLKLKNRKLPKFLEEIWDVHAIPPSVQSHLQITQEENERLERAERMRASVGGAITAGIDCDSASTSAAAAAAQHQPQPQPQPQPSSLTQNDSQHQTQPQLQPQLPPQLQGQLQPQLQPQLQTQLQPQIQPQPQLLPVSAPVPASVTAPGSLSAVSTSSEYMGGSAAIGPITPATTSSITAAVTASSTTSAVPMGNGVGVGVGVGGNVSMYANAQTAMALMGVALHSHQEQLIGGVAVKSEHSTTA

SMILES: CC(C)(O)CC[C@@H](O)[C@](C)(O)[C@H]1CC[C@@]2(O)C3=CC(=O)[C@@H]4C[C@@H](O)[C@@H](O)C[C@]4(C)[C@H]3CC[C@]12C [20-hydroxyecdysone]
- activity of chimeric receptor as homodimer [1]: not responsive

SMILES: CC(C)(C)N(NC(=O)c1ccccc1)C(=O)c1ccccc1 [RH5849, 1,2-dibenzoyl, 1-tert-butyl hydrazide]
- chemical induced reporter gene activity / induced levels of expression [2]: no chemical induced reporter gene activity
